A value given as a limit tells only on which side of the number the result lay.

Experiment [1] concerns NOD2/HEKBlue cells. In words: hNOD2-HEKBlue L18-MDP-induced NF-κB reporter assay. The format is cell-based, human. As to conditions: Homo sapiens, HEK-Blue; L18-MDP-induced NF-κB reporter; average ± SD of at least three titrations. As for the experimental part: For HEKBlue assay, cells were seeded into clear 96‐well plates at 7.5 × 10^3 cells/well and allowed to attach for 48 h. On the day of the experiment, media was changed to 100 μl of HEKBlue detection media (InvivoGen). Inhibitors were diluted and added in 0.5 μl DMSO 15 min prior to the addition of 1 ng/ml L18‐MDP (InvivoGen). After 8–9 h, absorbance at 620 nm was measured using Victor3V plate reader (Perkin Elmer, Waltham, MA). Values of media‐only wells were subtracted and %inhibition for each compound concentration relative to the DMSO/L18‐MDP‐treated controls was calculated. Inhibition values ± SD were fitted by non‐linear regression using Prism software (GraphPad Software, La Jolla, CA) to calculate IC50 values. For THP1Blue assay, 1 × 10^5 cells were seeded in 200 μl of RPMI media in 96‐well plates and treated with inhibitors in 0.5 μl DMSO for 15 min prior to the addition of 10 μg/ml MDP, 10 ng/ml Pam3CSK4, 10 ng/ml E. coli LPS, or 1 × 10^7 cells/ml heat‐killed L. monocytogenes (InvivoGen) for 24 h. After induction, 20 μl of media was mixed with 180 μl of QUANTI‐Blue reagent (InvivoGen) and incubated at 37°C for 3–4 h, followed by absorbance measurement at 620 nm. IC50 values were calculated as described for HEKBlue assay.
Cayman Chemical Company, Ann Arbor, MI), GSK583 (#HY-100339, MedChem Express, South Brunswick, NJ), WEHI-345 (MedKoo Biosciences, Morrisville, NC), Compound A (CpA, a kind gift from TetraLogic Pharmaceuticals, Malvern, PA). Generation of the CSLP compound series is described in Suebsuwong et al. 2018 (manuscript in preparation). hNOD2-HEKBlue and THP1Blue assays
For HEKBlue assay, cells were seeded into clear 96 well plates at 7.5x10^3 cells/well and allowed to attach for 48 h. On the day of the experiment, media was changed to 100 μl of HEKBlue detection media (InvivoGen). Inhibitors were diluted and added in 0.5 μl DMSO 15 min prior to the addition of 1 ng/ml L18-MDP (InvivoGen). After 8-9 h, absorbance at 620 nm was measured using Victor3V plate reader (Perkin Elmer, Waltham, MA). Values of media-only wells were subtracted and %inhibition for each compound concentration relative to the DMSO/L18-MDP-treated controls were calculated.
Inhibition values + StDev were fitted by non-linear regression using Prism software (GraphPad Software, La Jolla, CA) to calculate IC50 values. For THP1Blue assay, 1x10^5 cells were seeded in 200 μl of RPMI media in 96 well plates and treated with inhibitors in 0.5 μl DMSO 15 min prior to the addition of 10 µg/ml MDP, 10 ng/ml Pam3CSK4, 10 ng/ml E. coli LPS or 1x10^7 cells/ml heat-killed L. monocytogenes (InvivoGen) for 24 h. After induction, 20 μl of media was mixed with 180 μl of QUANTI-Blue reagent (InvivoGen) and incubated at 37 °C for 3-4 h, followed by absorbance measurement at 620 nm. IC50 values were calculated as described for HEKBlue assay. […]
On the technique in general: Reporter assays use an easily measured gene product as a stand-in for the process of interest.

Experiment [2] addresses T1, NanoLuc-RIPK2 (Homo sapiens, UniProt O43353).
T1 construct: host or cells: hNOD2-HEKBlue cells
In words: nanoBRET cellular RIPK2 target engagement assay in HEKBlue cells. Particulars: average ± SD of at least three titrations, read-out: IC50, Cellular activity, nanoBRET RIPK2 binding.

The target in experiment [3] is T2, recombinant RIPK2 kinase (Homo sapiens, UniProt O43353).
T2 construct: made in house
In words: RIPK2 ADPGlo in vitro kinase assay. The format is biochemical. Particulars: average ± SD of at least three titrations, read-out: IC50, In vitro kinase, RIPK2 ADPGIo. From the text:
The BIR2 domains of XIAP and cIAP1 were cloned into the pGEX‐6P1 vector and were expressed in E. coli (BL21) cells as a fusion protein with N‐terminal 6xHis (XIAP BIR2 only) and GST tags. Protein expression was induced with IPTG, and cells were lysed using BugBuster protein extraction reagent (#70921, Merck Millipore) according to manufacturer's instructions. Proteins were purified with the FPLC protein purification system ÄKTA PrimePlus (GE Healthcare Life Sciences) using HisTrap FF column purification followed by gel filtration (HiLoad 26/600 Superdex 75 pg (GE Healthcare Life Sciences)). Collected fractions were stored at −80°C and used for probing of peptide array membranes. Expression and purification of recombinant RIPK1‐3 was performed as previously described (Canning et al, 2015; Najjar et al, 2015). RIPK1‐3 ADPGlo kinase assays using 20 ng/well protein were performed for 2 h at room temperature also as previously described (Canning et al, 2015; Najjar et al, 2015).
For orientation: In ADP-Glo the light output rises with the ADP produced.

Experiment [4] has as its target T1, NanoLuc-RIPK2. In words: nanoBRET cellular RIPK2 residence time assay in HEKBlue cells. The format is binding. As to conditions: t1/2 for probe to engage RIPK2 after washout of inhibitor. In general terms: BRET reads energy transfer from a luciferase to a nearby fluorophore.
Experiment [5] relates to RIPK2 ubiquitination in U2OS/NOD2 and THP-1 cells. In words: Purification of Ub-conjugates (TUBE pulldown), RIPK2 ubiquitination. As to conditions: U2OS/NOD2 or THP-1 cells, L18-MDP 200 ng/ml, 1 h. In kind it is cell-based, human. As for the experimental part:
For co‐immunoprecipitation of HA‐XIAP with RIPK2, transfected and treated cells were lysed in TBS buffer containing 0.5% NP‐40, cOmplete and PhosSTOP inhibitors (Roche) and the lysate was cleared by centrifugation. The lysates were incubated with anti‐HA‐agarose overnight, washed 3× with lysis buffer, and analyzed by immunoblotting. For GST pulldown experiments, U2OS/NOD2 cells were lysed in TBS lysis buffer containing 0.5% NP‐40, cOmplete and PhosSTOP inhibitors (Roche). Cleared lysates were pretreated with kinase inhibitors or DMSO and incubated with GST‐XIAP‐BIR2 bound to Glutathione Sepharose at 4°C overnight. Bound material was washed 3× with lysis buffer or PBS, eluted with 15 mM Glutathione in PBS, and analyzed by immunoblotting. […] The bound material was eluted and analyzed as described above. […]
PBS, eluted with 15 mM Glutathione in PBS and analyzed by immunoblotting. […]

The test system of experiment [6] is U2OS/NOD2 cells. In words: Intracellular flow cytometry of CXCL8 after L18-MDP. As to conditions: U2OS/NOD2 cells, L18-MDP 200 ng/ml, 4 h. In kind it is cell-based, human. As for the experimental part: Purified material and lysates were analyzed by immunoblotting. […] Numbering below schematic refers to amino acid residues in human RIPK2 and indicate domain boundaries. […] Data information: Data in (A, B, D, H) represent the mean ± SEM of 2–4 independent experiments, each performed in duplicate. […] Two‐way ANOVA was used to determine statistical significance. See also Fig EV1.Source data are available online for this figure.
Dark gray represents areas occupied by RIPK2; white areas indicate empty spaces in CSLP binding pocket. […] Dotted black box indicates region shown for models with CSLP37 and CSLP43. • Molecular docking model of RIPK2 kinase domain in complex with CSLP43 (green) based on RIPK2/CSLP18 structure from (D). […] Two‐way ANOVA was used to determine statistical significance. See also Fig EV2.
GST-BIR2-XIAP as indicated. Intensity quantification of SPOTs was performed using ImageJ software
Dual luciferase reporter assay
Intracellular flow cytometry of CXCL8
for cell death) or vehicle for 24h. Viability was determined using the CellTiter-Glo® luminescent cell
together with Transfection Carrier DNA (Promega).
After addition of Nano-Glo

The target in experiment [7] is T3, His6‐GST‐XIAP‐BIR2 D214S (UniProt P98170 124-242, D214S).
T3 construct: not restated for the mutant; also called D214S BIR2 domain; D214S mutant; source: E. coli (BL21), purified (HisTrap FF, gel filtration); not shown: His6, N-terminal, kept; GST, N-terminal, kept
In words: peptide or protein array; SPOT assay: selected RIPK2 peptides and their Ala-/Leu-scan variants spotted in triplicate on cellulose, probed with 6xHis-GST-BIR2 of XIAP (WT or D214S), detected with anti-His-HRP, spots quantified with ImageJ. As to conditions: both partners purified.

For `CCCS(=O)(=O)Nc1cc(-c2cc(-c3ccc(N4CCNCC4)cc3)cnc2N)ccc1OC` [CSLP18], the results for the IC50 in experiment [1], in experiment [2] and in experiment [3] were 476 ± 96.7 nM, 578 ± 34.1 nM and 31.6 ± 8.7 nM, respectively. The residence time in experiment [4] was 66.6 min.

For `CCCS(=O)(=O)Nc1cc(F)cc(-c2cc(-c3ccc(N4CCNCC4)cc3)cnc2N)c1` [CSLP38], the IC50 (in general, the concentration needed to halve the response being measured) in experiment [1] amounted to 740 ± 60.7 nM; in experiment [2] it was 167 ± 19 nM; in experiment [3], 39.1 ± 1.5 nM. In experiment [4], the residence time stood at 106 min.

As for `CCCS(=O)(=O)Nc1cc(-c2cc(-c3ccc(N4CCNCC4)cc3)cnc2C)cc(F)c1OC` [CSLP53], the figures for the IC50 in experiment [1], in experiment [2] and in experiment [3] were 2560 nM, above 10000 nM and 1410 nM, respectively.

Consider `CC(C)(C)S(=O)(=O)c1ccc2nccc(Nc3n[nH]c4ccc(F)cc34)c2c1` [GSK583, 6‐(tert‐Butylsulfonyl)‐N‐(5‐fluoro‐1H‐indazol‐3‐yl)quinolin‐4‐amine, reference compound], for which the “RIPK2 ubiquitination after L18-MDP” value in experiment [5] is on record as “antagonized”. In addition, the “L18-MDP-induced CXCL8 production” value in experiment [6] is reported as “inhibited”.

B1: RIPK2 peptide A13 (residues 28‐42) (peptide, UniProt O43353 28-42, looked up)
peptide: ASGTVSSARHADWRV
notes: 15-mer of human RIPK2, residues 28-42 (β2 and the β2‐β3 loop of the N‐lobe of the kinase domain); also called A13 peptide
As to B1, the binding result in experiment [7] is listed as “binds”.

ADFGLSKWRMMSLSQ (peptide, UniProt O43353 163-177, looked up, 15-mer of human RIPK2, residues 163-177) [RIPK2 peptide E6 (residues 163–177)]: the binding result in experiment [7] was “binds”.

The values are drawn from paper PMC6120666 (The EMBO Journal, 2018).
